Article PMC6642134, “Dopey1-Mon2 complex binds to dual-lipids and recruits kinesin-1 for membrane trafficking” (Nature Communications, 2019)
One block for each molecule: values may come before it.

Legend:
[1] = biological target: T1, GST-DEC (Dopey1 extreme C-terminal region) (Homo sapiens, UniProt B2RWN9); assay: liposome pull-down with diluted protein, Western blot; type: binding; details: read-out: apparent affinity
T1 construct: DEC domain, residues 2146-2456, N-terminal GST fusion kept, E. coli BL21 DE3, detergent-free; dimeric through GST
T1 sequence (B2RWN9 2146-2456): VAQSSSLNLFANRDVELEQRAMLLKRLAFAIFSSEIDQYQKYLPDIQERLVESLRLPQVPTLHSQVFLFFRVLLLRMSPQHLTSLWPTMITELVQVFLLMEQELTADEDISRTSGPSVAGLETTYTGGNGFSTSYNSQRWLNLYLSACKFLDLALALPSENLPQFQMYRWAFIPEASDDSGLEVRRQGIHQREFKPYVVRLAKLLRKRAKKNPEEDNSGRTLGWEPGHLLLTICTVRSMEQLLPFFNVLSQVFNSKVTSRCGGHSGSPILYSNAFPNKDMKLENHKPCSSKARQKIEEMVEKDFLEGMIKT

[2] = biological target: the molecule itself; assay: single-molecule photo-bleaching steps (TIRF microscopy); GFP-fusion protein in HEK293T lysate (20 mM Tris pH 7.4) immobilised on a glass coverslip; photo-bleaching steps counted; expressed alone

Kd [1]: ~1000 nM
Molecule: PI4P

B1: Mon2, full length, transfected (natural protein, UniProt Q7Z3U7 1-1717, looked up)
chain: MSGTSSPEAVKKLLENMQSDLRALSLECKKKFPPVKEAAESGIIKVKTIAARNTEILAALKENSSEVVQPFLMGCGTKEPKITQLCLAAIQRLMSHEVVSETAAGNIINMLWQLMENSLEELKLLQTVLVLLTTNTVVHDEALSKAIVLCFRLHFTKDNITNNTAAATVRQVVTVVFERMVAEDERHRDIIEQPVLVQGNSNRRSVSTLKPCAKDAYMLFQDLCQLVNADAPYWLVGMTEMTRTFGLELLESVLNDFPQVFLQHQEFSFLLKERVCPLVIKLFSPNIKFRQGSSTSSSPAPVEKPYFPICMRLLRVVSVLIKQFYSLLVTECEIFLSLLVKFLDADKPQWLRAVAVESIHRFCVQPQLLRSFCQSYDMKQHSTKVFRDIVNALGSFIQSLFLVPPTGNPATSNQAGNNNLGGSVSAPANSGMVGIGGGVTLLPAFEYRGTWIPILTITVQGSAKATYLEMLDKVEPPTIPEGYAMSVAFHCLLDLVRGITSMIEGELGELETECQTTTEEGSSPTQSTEQQDLQSTSDQMDKEIVSRAVWEEMVNACWCGLLAALSLLLDASTDEAATENILKAELTMAALCGRLGLVTSRDAFITAICKGSLPPHYALTVLNTTTAATLSNKSYSVQGQSVMMISPSSESHQQVVAVGQPLAVQPQGTVMLTSKNIQCMRTLLNLAHCHGAVLGTSWQLVLATLQHLVWILGLKPSSGGALKPGRAVEGPSTVLTTAVMTDLPVISNILSRLFESSQYLDDVSLHHLINALCSLSLEAMDMAYGNNKEPSLFAVAKLLETGLVNMHRIEILWRPLTGHLLEVCQHPNSRMREWGAEALTSLIKAGLTFNHDPPLSQNQRLQLLLLNPLKEMSNINHPDIRLKQLECVLQILQSQGDSLGPGWPLVLGVMGAIRNDQGESLIRTAFQCLQLVVTDFLPTMPCTCLQIVVDVAGSFGLHNQELNISLTSIGLLWNISDYFFQRGETIEKELNKEEAAQQKQAEEKGVVLNRPFHPAPPFDCLWLCLYAKLGELCVDPRPAVRKSAGQTLFSTIGAHGTLLQHSTWHTVIWKVLFHLLDRVRESSTTADKEKIESGGGNILIHHSRDTAEKQWAETWVLTLAGVARIFNTRRYLLQPLGDFSRAWDVLLDHIQSAALSKNNEVSLAALKSFQEILQIVSPVRDSDKPETPPVVNVPVPVLIGPISGMSRPFVRTDSIGEKLGRYSSSEPPIVTDELEDLNLWWAAWNTWYRIGSESTKPPITFDKLTFIPSQPFLTALIQIFPALYQHIKTGFNMDDLQKLGVILHSAISVPISSDASPFILPSYTEAVLTSLQEAVLTALDVLQKAICVGPENMQIMYPAIFDQLLAFVEFSCKPPQYGQLETKHIANAKYNQIQLFAPAEWVALNYVPFAERSLEVVVDLYQKTACHKAVVNEKVLQNIIKTLRVPLSLKYSCPSESTWKLAVSSLLRVLSIGLPVARQHASSGKFDSMWPELANTFEDFLFTKSIPPDNLSIQEFQRNENIDVEVVQLISNEILPYANFIPKEFVGQIMTMLNKGSIHSQSSSFTEAEIDIRLREEFSKMCFETLLQFSFSNKVTTPQEGYISRMALSVLLKRSQDVLHRYIEDERLSGKCPLPRQQVTEIIFVLKAVSTLIDSLKKTQPENVDGNTWAQVIALYPTLVECITCSSSEVCSALKEALVPFKDFMQPPASRVQNGES
notes: Mon2, full length; One molecule for the differently tagged copies (GFP-Mon2 and DMyc-Mon2 in the self co-IP); GFP-Mon2 in photo-bleaching; DMyc-Mon2 co-expressed with GFP-Dopey1; also called GFP-Mon2; DMyc-Mon2; source: HEK293T, transfected, in lysate; HeLa, transfected (imaging); not shown: GFP or DMyc or another fluorescence protein (by experiment), N-terminal, kept
stoichiometry N [2]: 2
